Measured values from PubChem BioAssay AID2060348 (Molecular Pharmacology Branch, DTP, NCI, 2025).
Several values for one entry are separate records, joined by “and”; a condition that tells them apart may be missing. Equal values may be shown once. Blank lines part the entries; values can stand above or below the compound they belong to.

Test system: 885724-159-R-J1-PDC spheroids viability
Test: Anticancer human tumor 885724-159-R-J1-PDC patient-derived pancreatic adenocarcinoma cell line growth inhibition [TAK]
Conditions: spheroids with HUVEC and MSC; for viability, T/C: stronger effect = lower value
Excerpt: Combinatorial screen of targeted agents with TAK-243 and ipatasertib in multi-cell type tumor spheroids
A high-throughput screen of multi-cell type tumor spheroids was designed to identify active combinations of targeted small molecules and TAK-243 or ipatasertib. Complex spheroids include a stromal component modeled by human endothelial cells (HUVEC) and fibroblasts modeled by human mesenchymal stem cells (MSCs). The concentration ranges selected for each drug and investigational agent were based upon clinically achievable concentrations if the clinical Cmax of the agent was known.
Compounds. The drugs and investigational agents: TAK-243 (785004), ipatasertib (767898), everolimus (733504), selumetinib (741078), bortezomib (756655), trametinib (758246), ixazomib (758254), vemurafenib (761431), dabrafenib (764134), sapanisertib (764658), alpelisib (765974), and copanlisib (816437), were obtained from the National Cancer Institute (NCI) Developmental Therapeutics Program Chemical Repository. The FDA-approved anticancer drug set is available from the NCI Developmental Therapeutics Program. […] The stock solutions were prepared in dimethyl sulfoxide (DMSO, Sigma-Aldrich, St. Louis, MO, cat. D2650) at 800-fold the tested concentration and stored at -70 degrees C prior to their use. All drugs and investigational agents were tested over a range starting from a high concentration at or near the clinical Cmax and decreasing in half-log increments. If the clinical Cmax for an agent had not been determined, the highest concentration tested was 10 microM.
NCI60 Cell Culture. NCI60 cell lines were obtained from the NCI Developmental Therapeutics Program Tumor Repository. For each lot of cells, the Repository performed Applied Biosystems AmpFLSTR Identifiler testing with PCR amplification to confirm consistency with the published Identifier STR profile for each cell line. Cells were kept in continuous culture for no more than 20 passages. The optimal seeding densities for each of the cell lines at each time point assessed were determined prior to performing the concentration response studies. Briefly, the NCI60 human tumor lines were grown as monolayers in RPMI 1640 medium supplemented with 10% FBS and 2 mmol/L L-glutamine.
An additional 2 lines were from the NCI60 cell line panel including melanomas, MALME-3M and SK-MEL-2. Pooled donor human umbilical vein endothelial cells (HUVEC, Lonza, cat. CC-2519) and human mesenchymal stem cells (hMSC, Lonza, cat. PT-2501) were purchased from Lonza (Walkersville, MD).
PDMR cell lines were grown in complete medium (DC medium): Dulbecco's modified Eagle's medium (DMEM)/F12 supplemented with 5% fetal bovine serum (FBS), 2 mM L-glutamine, 100 U/mL penicillin and 100 µg/ml streptomycin, 0.4 µg/ml hydrocortisone, 10 ng/ml epidermal growth factor (EGF) recombinant human protein, 24 µg/mL adenine, and 0.1 mg/mL primocin. During culture from frozen stock vials, PDMR cells were cultured in the same medium containing 10 µM Y-27632 (see Table 3). The PDCs were cultured in complete DMEM/F12 media without 10 microM Y-27632 dihydrochloride for at least two passages prior to the screen. The pooled donor HUVEC and hMSC were cultured in endothelial cell growth medium 2 (PromoCell, Heidelberg, Germany, cat. C-22011) and mesenchymal stem cell growth medium 2 (PromoCell, cat. C-28009), respectively. For all experiments, HUVEC and hMSC were used at passages </=5.
For the pre-screen, cell seeding densities were determined from a titration spanning the range from 5,000 to 313 cells per well. The mct-spheroids including 60% malignant cells, 25% HUVEC and 15% MSC dispensed as a mixture into U-bottom Ultra-Low Attachment 384-well plates (Corning, NY)
High-throughput Drug Combination Screening.
Prior to their inoculation into 384-well plates, malignant cells, HUVEC, and hMSC were removed from T flasks using TrypLE express (Thermo Fisher Scientific, cat. 12605036) and harvested by centrifugation for 5 min at 233 x g. […]

[1] = curve of first compound, second compound 0.3 µM
[2] = curve of first compound, second compound 0.949 µM
[3] = curve of first compound, second compound 3 µM
[4] = curve of first compound, second compound 9.49 µM
[5] = curve of first compound, second compound 30 µM
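Note: spheroids exposed to drugs for seven days.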
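Throughout, for viability, T/C: 100% = DMSO vehicle control viability.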

Structure (SMILES): CCCS(=O)(=O)Nc1ccc(F)c(C(=O)c2c[nH]c3ncc(-c4ccc(Cl)cc4)cc23)c1F + CC(C)NCC(C(=O)N1CCN(c2ncnc3c2C(C)CC3O)CC1)c1ccc(Cl)cc1
IC50 [1]: > 100000 nM
IC50 [2]: > 100000 nM
IC50 [3]: 25100 nM
IC50 [4]: 8750 nM
IC50 [5]: < 316 nM
viability, T/C (second compound 0.3 µM, first compound 0.316 µM): 79.3%
viability, T/C (second compound 0.3 µM, first compound 1 µM): 93.8%
viability, T/C (second compound 0.3 µM, first compound 3.16 µM): 104%
viability, T/C (second compound 0.3 µM, first compound 10 µM): 89.7%
viability, T/C (second compound 0.3 µM, first compound 31.6 µM): 99.7%
viability, T/C (second compound 0.3 µM, first compound 100 µM): 105%
viability, T/C (second compound 0.949 µM, first compound 0.316 µM): 66.1%
viability, T/C (second compound 0.949 µM, first compound 1 µM): 78.4%
viability, T/C (second compound 0.949 µM, first compound 3.16 µM): 76.2%
viability, T/C (second compound 0.949 µM, first compound 10 µM): 74.2%
viability, T/C (second compound 0.949 µM, first compound 31.6 µM): 34.7%
viability, T/C (second compound 0.949 µM, first compound 100 µM): 76.6%
viability, T/C (second compound 3 µM, first compound 0.316 µM): 66.4%
viability, T/C (second compound 3 µM, first compound 1 µM): 71.8%
viability, T/C (second compound 3 µM, first compound 3.16 µM): 67.1%
viability, T/C (second compound 3 µM, first compound 10 µM): 63.9%
viability, T/C (second compound 3 µM, first compound 31.6 µM): 34.2%
viability, T/C (second compound 3 µM, first compound 100 µM): 58.8%
viability, T/C (second compound 9.49 µM, first compound 0.316 µM): 58.5%
viability, T/C (second compound 9.49 µM, first compound 1 µM): 58.4%
viability, T/C (second compound 9.49 µM, first compound 3.16 µM): 58.6%
viability, T/C (second compound 9.49 µM, first compound 10 µM): 48.9%
viability, T/C (second compound 9.49 µM, first compound 31.6 µM): 13.4%
viability, T/C (second compound 9.49 µM, first compound 100 µM): 47.2%
viability, T/C (second compound 30 µM, first compound 0.316 µM): 37.5%
viability, T/C (second compound 30 µM, first compound 1 µM): 40.9%
viability, T/C (second compound 30 µM, first compound 3.16 µM): 36.6%
viability, T/C (second compound 30 µM, first compound 10 µM): 12.8%
viability, T/C (second compound 30 µM, first compound 31.6 µM): 3.55%
viability, T/C (second compound 30 µM, first compound 100 µM): 23.1%

IC50 (curve of compound): > 100000 nM
Structure (SMILES): CCCS(=O)(=O)Nc1ccc(F)c(C(=O)c2c[nH]c3ncc(-c4ccc(Cl)cc4)cc23)c1F
viability, T/C (compound 0.316 µM): 145% and 137%
viability, T/C (compound 1 µM): 179% and 154%
viability, T/C (compound 3.16 µM): 187% and 177%
viability, T/C (compound 10 µM): 96.5% and 86.4%
viability, T/C (compound 31.6 µM): 159% and 132%
viability, T/C (compound 100 µM): 150% and 129%

Structure (SMILES): CC(C)CC(NC(=O)CNC(=O)c1cc(Cl)ccc1Cl)B1OC(=O)CC(CC(=O)O)(C(=O)O)O1 (configuration not stated) + CC(C)NCC(C(=O)N1CCN(c2ncnc3c2C(C)CC3O)CC1)c1ccc(Cl)cc1
IC50 [1]: 13.8 nM
IC50 [2]: 12.1 nM
IC50 [3]: 11.6 nM
IC50 [4]: < 0.316 nM
IC50 [5]: < 0.316 nM
viability, T/C (second compound 0.3 µM, first compound 0.000316 µM): 66.6%
viability, T/C (second compound 0.3 µM, first compound 0.001 µM): 66.3%
viability, T/C (second compound 0.3 µM, first compound 0.00316 µM): 63.6%
viability, T/C (second compound 0.3 µM, first compound 0.01 µM): 63.3%
viability, T/C (second compound 0.3 µM, first compound 0.0316 µM): 15.4%
viability, T/C (second compound 0.3 µM, first compound 0.1 µM): 1.16%
viability, T/C (second compound 0.949 µM, first compound 0.000316 µM): 57.5%
viability, T/C (second compound 0.949 µM, first compound 0.001 µM): 61%
viability, T/C (second compound 0.949 µM, first compound 0.00316 µM): 62.2%
viability, T/C (second compound 0.949 µM, first compound 0.01 µM): 58.3%
viability, T/C (second compound 0.949 µM, first compound 0.0316 µM): 8.98%
viability, T/C (second compound 0.949 µM, first compound 0.1 µM): 1.18%
viability, T/C (second compound 3 µM, first compound 0.000316 µM): 55.5%
viability, T/C (second compound 3 µM, first compound 0.001 µM): 58.3%
viability, T/C (second compound 3 µM, first compound 0.00316 µM): 53.1%
viability, T/C (second compound 3 µM, first compound 0.01 µM): 55.9%
viability, T/C (second compound 3 µM, first compound 0.0316 µM): 11.1%
viability, T/C (second compound 3 µM, first compound 0.1 µM): 0.99%
viability, T/C (second compound 9.49 µM, first compound 0.000316 µM): 48.5%
viability, T/C (second compound 9.49 µM, first compound 0.001 µM): 52.1%
viability, T/C (second compound 9.49 µM, first compound 0.00316 µM): 48.5%
viability, T/C (second compound 9.49 µM, first compound 0.01 µM): 46.1%
viability, T/C (second compound 9.49 µM, first compound 0.0316 µM): 9.27%
viability, T/C (second compound 9.49 µM, first compound 0.1 µM): 1.07%
viability, T/C (second compound 30 µM, first compound 0.000316 µM): 33.9%
viability, T/C (second compound 30 µM, first compound 0.001 µM): 33.5%
viability, T/C (second compound 30 µM, first compound 0.00316 µM): 34.7%
viability, T/C (second compound 30 µM, first compound 0.01 µM): 32.9%
viability, T/C (second compound 30 µM, first compound 0.0316 µM): 7.76%
viability, T/C (second compound 30 µM, first compound 0.1 µM): 0.71%
